Results reported in US9303033B2, “Pyrazolopyrimidines and related heterocycles as CK2 inhibitors” (SENHWA BIOSCIENCES, INC., priority 2009, dated 2016).
Where two headings read alike, the source gives them in different places.

Experiments:
[1] = system: BxPC3 human pancreatic adenocarcinoma cells; assay: Cell proliferation assay with Alamar Blue (AB), BxPC3; format: cell-based
Method: (§1) A representative cell-proliferation assay protocol using Alamar Blue dye (stored at 4° C., use 20 ul per well) is described hereafter.
(§2) a. Split and trypsinize cells.
(§3) b. Count cells using hemocytometer.
(§4) c. Plate 4,000-5,000 cells per well in 100 μl of medium and seed into a 96-well plate according to the following plate layout. Add cell culture medium only to wells B10 to B12.
(§5) d. Add 100 μl of 2× drug dilution to each well in a concentration shown in the plate layout above. […] Total volume is 200 μl/well.
(§6) e. Incubate four (4) days at 37° C., 5% CO2 in a humidified incubator.
(§7) f. Add […] Alamar Blue reagent to each well.
(§8) g. Incubate for four (4) hours at 37° C., 5% CO2 in a humidified incubator.
(§9) h. Record fluorescence at an excitation wavelength of 544 nm and emission wavelength of 590 nm using a microplate reader.
(§10) In the assays, cells are cultured with a test compound for approximately four days, the dye is then added to the cells and fluorescence of […] dye is detected after approximately four hours. Different types of cells can be utilized in the assays (e.g., HCT-116 human colorectal carcinoma cells, PC-3 human prostatic cancer cells, MDA-MB231 human breast cancer cells, K-562 human chronic myelogenous leukemia (CML) cells, MiaPaca human pancreatic carcinoma cells, MV-4 human acute myeloid leukemia cells, and BxPC3 human pancreatic adenocarcinoma cells).

MDAMB453 = assay: Cell proliferation assay with Alamar Blue (AB), MDAMB453; format: cell-based
Method: as §1, §2, §3, §4, §5, §6, §7, §8, §9, §10

recombinant human PIM2 = recombinant human PIM2 (Homo sapiens (Human), UniProt Q9P1W9); assay: PIM-2 assay (33P-ATP filter binding); format: biochemical; details: for PIM2: % inh […]: at […] compound
Method: Test compounds dissolved and diluted in DMSO (2 μl) were added to a reaction mixture comprising 10 μl of 5× Reaction Buffer (40 mM MOPS pH 7.0, 5 mM EDTA), 10 μl of recombinant human PIM2 solution (4 ng PIM-2 dissolved in dilution buffer (20 mM MOPS pH 7.0; EDTA 1 mM; 5% Glycerol; 0.01% Brij 35; 0.1%; 0.1% 2-mercaptoethanol; 1 mg/ml BSA)) and 8 ul of water.

CK2 ααββ = CK2 ααββ (Homo sapiens (Human), UniProt P68400); assay: CK2 assay (cell-free, 33P-ATP, phosphocellulose filter plate); format: biochemical
Method: Modulatory activity of compounds described herein was assessed in vitro in cell-free CK2 assays by the following method.
Reactions were maintained for 40 min at 23° C. The reactions were quenched with 100 ul of 0.75% Phosphoric acid, then transferred to and filtered through a Phosphocellulose filter plate (Millipore, MSPH-N6B-50). After washing each well 4 times with 0.75% Phosphoric acid, scintillation fluid (20 uL) was added to each well and the residual radioactivity was measured using a Wallac luminescence counter.

[2] = Homo sapiens, BXPC-3, read-out: AB: BxPC3
[3] = Homo sapiens, MDA-MB-453, MDAMB453 cells, read-out: AB: MDAMB453
[4] = 5 um ATP, read-out: PIM2: IC50 (5 um ATP)
[5] = MDAMB453 cells, read-out: AB: MDAMB453 IC50
[6] = MDAMB453 cells, read-out: AB: MDAMB453
[7] = read-out: PIM2: IC50 (5 μM ATP), 5 μM ATP
[8] = Tables 41B, 42B, read-out: PIM2: IC50
[9] = PIM2: IC50 (5 μM ATP), 5 μM ATP

recombinant human PIM2, sequence (Q9P1W9 whole entry): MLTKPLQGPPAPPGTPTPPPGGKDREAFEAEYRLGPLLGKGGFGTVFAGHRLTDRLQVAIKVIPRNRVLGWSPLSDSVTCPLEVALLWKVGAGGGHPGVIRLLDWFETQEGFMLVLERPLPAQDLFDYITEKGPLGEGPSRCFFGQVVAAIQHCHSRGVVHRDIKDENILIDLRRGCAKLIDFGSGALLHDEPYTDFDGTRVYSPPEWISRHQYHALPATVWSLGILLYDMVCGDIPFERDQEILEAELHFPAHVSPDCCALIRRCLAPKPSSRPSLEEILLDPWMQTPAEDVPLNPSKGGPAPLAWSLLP
CK2 ααββ, sequence (P68400 whole entry): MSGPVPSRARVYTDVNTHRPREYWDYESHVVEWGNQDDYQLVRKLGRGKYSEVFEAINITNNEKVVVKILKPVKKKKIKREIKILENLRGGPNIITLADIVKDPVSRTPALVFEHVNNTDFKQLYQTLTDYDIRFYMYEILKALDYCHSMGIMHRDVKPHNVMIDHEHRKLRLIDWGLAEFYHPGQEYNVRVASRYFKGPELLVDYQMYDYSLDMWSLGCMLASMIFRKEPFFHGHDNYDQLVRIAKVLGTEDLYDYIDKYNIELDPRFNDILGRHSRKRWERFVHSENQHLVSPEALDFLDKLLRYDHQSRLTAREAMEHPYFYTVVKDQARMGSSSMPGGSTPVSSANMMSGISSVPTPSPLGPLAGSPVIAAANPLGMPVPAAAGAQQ
CK2 ααββ, sequence (P67870 whole entry partner): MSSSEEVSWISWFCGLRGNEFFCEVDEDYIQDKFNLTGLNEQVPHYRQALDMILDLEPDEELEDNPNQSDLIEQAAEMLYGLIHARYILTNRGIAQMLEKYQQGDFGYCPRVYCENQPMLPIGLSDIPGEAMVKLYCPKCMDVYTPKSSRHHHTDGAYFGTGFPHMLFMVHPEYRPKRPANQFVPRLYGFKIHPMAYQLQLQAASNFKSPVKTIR

Structure (SMILES)	IC50 [1, 2] [µM]	IC50 (MDAMB453; [3]) [nM]	IC50 (CK2 ααββ) [nM]	IC50 (recombinant human PIM2; [9]) [nM]	other results
O=C1NC(=O)/C(=C/c2cnn3c(NC4CC4)cc(SCc4ccccc4)nc23)N1	11	> 30000	< 10	–	IC50 (recombinant human PIM2; [4]): > 2500 nM
O=C1NC(=S)S/C1=C\c1cnn2c(NC3CC3)cc(-c3ccnc(F)c3)nc12	22.7	> 30000	< 1000	–	IC50 (recombinant human PIM2; [4]): 1590 nM
N#Cc1cccc(Cc2cc(NC3CC3)n3ncc(/C=C4\NC(=O)NC4=O)c3n2)c1	19.7	> 30000	< 10	–	IC50 (recombinant human PIM2; [4]): > 2500 nM
CC(CNc1cc(Nc2ccc(C#N)cc2Cl)nc2c(C=C3NC(=O)NC3=O)cnn12)N1CCOCC1 (racemic) [Example 522]	–	–	< 10	–	IC50 ([1]; read-out: AB: BxPC3 IC50): 10.4 µM; IC50 (MDAMB453; [5]): 1520 nM
CC1CN(Cc2cc(-c3cc(NC4CC4)n4ncc(C=C5NC(=O)NC5=O)c4n3)cs2)CC(C)O1 (stereo not drawn) [Compound A14]	–	–	< 10	–	IC50 ([1]; read-out: AB: BxPC3): 1.76 µM; IC50 (MDAMB453; [6]): 1610 nM; IC50 (recombinant human PIM2; [7]): 1570 nM
O=C1NC(=O)C(=Cc2cnn3c(NC4CC4)cc(-c4csc(CNC5CCCC5)c4)nc23)N1 [Compound B14]	–	–	< 10	–	IC50 ([1]; read-out: AB: BxPC3): 1 µM; IC50 (MDAMB453; [6]): 1610 nM; IC50 (recombinant human PIM2; [7]): 1450 nM
O=C1NC(=O)C(=Cc2cnn3c(NC4CC4)cc(Oc4cccc(Cl)c4)nc23)N1 [Compound U38]	–	–	< 10	–	IC50 ([1]; read-out: AB: BxPC3 IC50): 20.9 µM; IC50 (MDAMB453; [5]): 10700 nM; IC50 (recombinant human PIM2; [8]): > 2500 nM
N#Cc1ccc(Oc2cc(NC3CC3)n3ncc(C=C4NC(=O)NC4=O)c3n2)c(Cl)c1 [Compound V38]	–	–	< 10	–	IC50 ([1]; read-out: AB: BxPC3 IC50): 5.21 µM; IC50 (MDAMB453; [5]): 1380 nM; IC50 (recombinant human PIM2; [8]): > 2500 nM
O=C1NC(=O)C(=Cc2cnn3c(NC4CC4)cc(-c4csc(CN5CCCC5)c4)nc23)N1 [Compound Y13]	–	–	< 10	–	IC50 ([1]; read-out: AB: BxPC3): 0.929 µM; IC50 (MDAMB453; [6]): 1390 nM; IC50 (recombinant human PIM2; [7]): > 2500 nM
CN(C)C1CCN(Cc2cc(-c3cc(NC4CC4)n4ncc(C=C5NC(=O)NC5=O)c4n3)cs2)C1 (stereo not drawn) [Compound Z13]	–	–	< 10	–	IC50 ([1]; read-out: AB: BxPC3): 10.2 µM; IC50 (MDAMB453; [6]): 2500 nM; IC50 (recombinant human PIM2; [7]): > 2500 nM
Nc1cc(Nc2cccc(Cl)c2)nc2c(/C=C3\NC(=O)NC3=O)cnn12 [Example A1, 5-((7-amino-5-(3-chlorophenylamino)pyrazolo[1,5-a]pyrimidin-3-yl)methylene)imidazolidine-2,4-dione]	16.6	2460	< 100	1180	–
CC(=O)NC1CCC(Nc2cc(NC3CC3)n3ncc(/C=C4\NC(=O)NC4=O)c3n2)CC1 (stereo not drawn) [Example A3]	> 30	> 30000	< 10	–	IC50 (recombinant human PIM2; [7]): > 2500 nM
O=C1NC(=O)/C(=C/c2cnn3c(NC4CC4)cc(-c4cccc(OCCN5CCOCC5)c4)nc23)N1 [Example A4]	> 30	> 30000	< 10	> 2500	–
COc1cccc(-c2cc(NC3CC3)n3ncc(/C=C4\NC(=O)NC4=O)c3n2)c1 [Example A5]	1.74	948	< 10	–	–
O=C1NC(=O)/C(=C/c2cnn3c(NC4CC4)cc(-c4cccc(OCCCO)c4)nc23)N1 [Example B4]	7.91	7870	< 10	2170	–
CN(c1cccc(-c2cc(NC3CC3)n3ncc(/C=C4\NC(=O)NC4=O)c3n2)c1)S(C)(=O)=O [Example B5]	5.43	26700	< 10	> 2500	–
O=C1NC(=O)/C(=C/c2cnn3c(NC4CCCC4)cc(Nc4cccc(Cl)c4)nc23)N1 [Example B6]	> 30	10500	–	–	–
CC(C)(C)OC(=O)c1cccc(Nc2cc(Nc3cccc(Cl)c3)nc3c(/C=C4\NC(=O)NC4=O)cnn23)c1 [Example B7]	10.2	7770	< 10	> 2500	–
Cc1c(Nc2cccc(Cl)c2)nc2c(C=C3NC(=O)NC3=O)cnn2c1NC1CC1 [Example B46]	–	–	< 10	–	IC50 ([1]; read-out: AB: BxPC3 IC50): > 30 µM; IC50 (MDAMB453; [5]): 24200 nM; PIM2: % inh […] (recombinant human PIM2): 47.606%

Structure (SMILES)	IC50 [1, 2] [µM]	IC50 (MDAMB453; [3]) [nM]	IC50 (CK2 ααββ) [nM]	IC50 (recombinant human PIM2; [9]) [nM]	other results
O=C1NC(=O)/C(=C/c2cnn3c(NC4CC4)cc(Nc4cccc(Cl)c4)nc23)N1 [Example C1]	15	1040	< 10	> 2500	IC50 (recombinant human PIM2; read-out: PIM2: IC50): 1300 nM
CS(=O)(=O)Nc1cccc(-c2cc(NC3CC3)n3ncc(/C=C4\NC(=O)NC4=O)c3n2)c1 [Example C4]	3.28	1490	< 100	2400	–
CCOCCNc1cc(Nc2cccc(Cl)c2)nc2c(/C=C3\NC(=O)NC3=O)cnn12 [Example C6]	3.8	1140	–	–	–
CN(C)C1CCN(C(=O)c2cccc(Nc3cc(Nc4cccc(Cl)c4)nc4c(/C=C5\NC(=O)NC5=O)cnn34)c2)C1 (stereo not drawn) [Example C7]	> 30	6440	< 10	1440	–
Cc1c(Nc2ccc(C#N)cc2F)nc2c(C=C3NC(=O)NC3=O)cnn2c1NC1CC1 [Example C46]	–	–	< 10	–	IC50 ([1]; read-out: AB: BxPC3 IC50): 15.2 µM; IC50 (MDAMB453; [5]): 6290 nM; PIM2: % inh […] (recombinant human PIM2): 59.266%
O=C1NC(=O)/C(=C/c2cnn3c(NC4CC4)cc(Nc4cccc(F)c4)nc23)N1 [Example D1]	4.07	1340	< 10	2200	–
N#Cc1cccc(-c2cc(NC3CC3)n3ncc(/C=C4\NC(=O)NC4=O)c3n2)c1 [Example D4]	23.6	1050	< 10	> 2500	–
CC(C)N1CCN(C(=O)c2cc(-c3cc(NC4CC4)n4ncc(/C=C5\NC(=O)NC5=O)c4n3)ccc2F)CC1 [Example D5]	1.21	2440	< 100	> 2500	–
O=C1NC(=O)/C(=C/c2cnn3c(NCCO)cc(Nc4cccc(Cl)c4)nc23)N1 [Example D6]	1.92	717	< 1000	475	–
O=C1NC(=O)/C(=C/c2cnn3c(NC4CC4)cc(NC(=O)C4CC4)nc23)N1 [Example L2]	11	4170	< 10	–	–
O=C1NC(=O)/C(=C/c2cnn3c(NC4CCNC4)cc(Nc4cccc(Cl)c4)nc23)N1 (stereo not drawn) [Example P6]	1.62	569	–	–	–
CCN1CCC(Nc2cc(Nc3cccc(Cl)c3)nc3c(/C=C4\NC(=O)NC4=O)cnn23)CC1 [Example W5]	–	–	< 1000	> 2500	–
C[C@@H](Nc1cc(NC2CC2)n2ncc(/C=C3\NC(=O)NC3=O)c2n1)C1CC1 [Example X2]	–	–	< 10	1950	–
O=C1NC(=O)/C(=C/c2cnn3c(SCc4ccccc4)cc(Nc4cccc(Cl)c4)nc23)N1 [Example X5]	–	–	< 1000	2240	–
CC(=O)Nc1cccc(Nc2cc(NCC3CC3)n3ncc(/C=C4\NC(=O)NC4=O)c3n2)c1 [Example Y1]	–	–	< 100	> 2500	–
CNS(=O)(=O)c1cccc(-c2cc(NC3CC3)n3ncc(/C=C4\NC(=O)NC4=O)c3n2)c1 [Example Y3]	–	–	< 10	> 2500	–
O=C1NC(=O)/C(=C/c2cnn3c(SCc4ccccc4)cc(-c4cccc(Cl)c4)nc23)N1 [Example Y5]	–	–	< 1000	291	–
O=C1NC(=O)/C(=C/c2cnn3c([S+]([O-])Cc4ccccc4)cc(Nc4cccc(Cl)c4)nc23)N1 (stereo not drawn) [Example Z5]	–	–	< 1000	297	–
